According to article PMC6768889 (Cancer Chemotherapy and Pharmacology, 2019):
“And” between values parts separate entries of the source, which are not always exact repeats. Equal values may be shown once. Where a name gives a salt, the structure may show the parent alone. Read-outs that look alike come from different tables or passages of the source.

Key:
[1] = In vitro solubility assessment; assay type: physicochemical
[2] = Phase 1 drug–drug interaction study: plasma PK of quizartinib, AC886 and quizartinib + AC886 after a single 30-mg quizartinib tablet alone or with lansoprazole; assay type: in vivo, human; settings: for Vd/F: read-out: Vz/F (CV%), geometric mean; for CL/F (CV%), geometric mean: quizartinib
Experimental: The tolerability and safety of quizartinib administered alone and in combination with lansoprazole were also assessed. The study was conducted in compliance with the Declaration of Helsinki and the International Conference on Harmonisation (ICH)/Good Clinical Practice as well as all applicable state, local, and federal regulations. The study protocol, amendments, and informed consent forms were reviewed and approved by the institutional review board. All subjects provided written informed consent before any study-related procedure took place.
Subjects were randomized into two groups: lansoprazole and quizartinib (lansoprazole + quizartinib; test group) and quizartinib alone (reference group). On days 1–5, subjects in the test group were administered 60-mg lansoprazole (2 × 30 mg oral delayed-released capsule) once daily in the morning before food. […] All study drugs were taken with approximately 240 mL of water.
Plasma concentrations were determined by BASi (West Lafayette, IN, USA) using a validated analytical method.
Samples were injected into an LC–MS/MS system (LC: Nexera System, Shimadzu Scientific Instruments, Columbia, MD, USA; MS: API 5500™, SCIEX, Framingham, MA, USA) using a PFP column (Phenomenex/Kinetex, Torrance, CA, USA) with a gradient ammonium formate/formic acid/acetonitrile/water mobile phase. […] For AC886 at the LLOQ, precision was 6.0% CV and accuracy was 0.2% bias across 14 runs; accuracy ranged from −7.9 to 10.6% bias within runs. For AC886 at the upper limit of quantitation, precision was 2.9% CV and accuracy was −1.4% bias across 14 runs; accuracy ranged from −6.4 to 4.6% bias within runs.
A sample size of 25 subjects per group was determined to yield a ≤ 10% relative standard error of the mean, based on the observed intersubject coefficient of variation (CV%) of approximately 60% for PK parameters in a previous drug–drug interaction study in healthy volunteers (data on file, Daiichi Sankyo, Inc., Basking Ridge, NJ, USA). Up to 32 subjects/group were planned to account for possible premature withdrawal. Descriptive statistics were used to summarize plasma concentrations and PK parameters of the PK analysis population. Safety parameters were summarized in the safety analysis population using descriptive statistics. All descriptive statistics were calculated using SAS® software version 9.3 (SAS Institute Inc., Cary, NC, USA). […] PK parameters were natural logarithm (ln)-transformed prior to analyses. The ln-transformed PK results were back-transformed by exponentiation to obtain the geometric least squares mean (LSM) for each treatment and calculate geometric LSM ratios for pairwise comparisons.

[3] = cited from earlier work
[4] = Safety: treatment-emergent adverse events, vital signs and laboratory tests in the phase 1 study; assay type: in vivo, human
Experimental: The safety analysis population consisted of all randomized subjects who received quizartinib or at least one dose of lansoprazole. Safety was assessed with physical examinations, vital signs, AE evaluations, 12-lead electrocardiograms (ECGs), and clinical laboratory tests (hematology, chemistry, and urinalysis). AEs were evaluated during the study according to the Medical Dictionary for Regulatory Activities version 17.1 and assessed for severity and relation to study drugs. Laboratory results were summarized based on National Cancer Institute Common Terminology Criteria for Adverse Events version 4.03.

[5] = by treatment group
gastric acid secretion = tested on: gastric acid secretion; set-up: method as in earlier work; settings: cited from earlier work
[6] = healthy subjects, single 30-mg quizartinib
[7] = quizartinib in plasma, single 30-mg quizartinib alone, n = 30
[8] = all patients, quizartinib with/without lansoprazole, N = 63
[9] = all subjects, quizartinib with or without lansoprazole
[10] = by treatment group, safety population
[11] = day 5, up to 8 h after quizartinib

## CC(C)(C)c1cc(NC(=O)Nc2ccc(-c3cn4c(n3)sc3cc(OCCN5CCOCC5)ccc34)cc2)no1 [quizartinib dihydrochloride]
[1]
  pH dependence of solubility: pH dependent
[1]; at physiological pH in the intestine
  solubility: < 0.4 µg/mL

## CC(C)(C)c1cc(NC(=O)Nc2ccc(-c3cn4c(n3)sc3cc(OCCN5CCOCC5)ccc34)cc2)no1 [Quizartinib, quizartinib]
[2]; [6]
  Decrease in AUCinf (geometric LSM) for lansoprazole + quizartinib versus quizartinib alone: 4.7%
  Decrease in AUClast (geometric LSM) for lansoprazole + quizartinib versus quizartinib alone: 6.0%
  Decrease in Cmax (geometric LSM) for lansoprazole + quizartinib versus quizartinib alone: 13.9%
[2]; human, plasma, oral, 30 mg, quizartinib in plasma, quizartinib alone, n = 30, read-out: AUCinf, geometric LS mean (ANOVA)
  AUC(0-inf): 8660 ng·h/mL
[2]; human, plasma, oral, 30 mg, quizartinib in plasma, quizartinib alone, n = 30, read-out: AUClast, geometric LS mean (ANOVA)
  AUC(0-t): 8330 ng·h/mL
[2]; human, plasma, oral, 30 mg, quizartinib in plasma, single 30-mg quizartinib alone, n = 30, read-out: AUCinf (CV%), geometric mean
  AUC(0-inf): 8660 ng·h/mL
[2]; human, plasma, oral, 30 mg, quizartinib in plasma, single 30-mg quizartinib alone, n = 30, read-out: AUClast (CV%), geometric mean
  AUC(0-t): 8330 ng·h/mL
[2]; human, plasma, oral, 30 mg
  Vd/F: 431 L
[2]; human, plasma, oral, quizartinib in plasma, lansoprazole 60 mg once daily + single 30-mg quizartinib, n = 31, read-out: AUCinf (CV%), geometric mean
  AUC(0-inf): 8260 ng·h/mL
[2]; human, plasma, oral, quizartinib in plasma, lansoprazole 60 mg once daily + single 30-mg quizartinib, n = 32, read-out: AUClast (CV%), geometric mean
  AUC(0-t): 7830 ng·h/mL
[2]; human, plasma, oral, quizartinib in plasma, lansoprazole + quizartinib, n = 31, read-out: AUCinf, geometric LS mean (ANOVA)
  AUC(0-inf): 8260 ng·h/mL
[2]; human, plasma, oral, quizartinib in plasma, lansoprazole + quizartinib, n = 32, read-out: AUClast, geometric LS mean (ANOVA)
  AUC(0-t): 7830 ng·h/mL
[2]; human, plasma, oral, read-out: Mean T1/2 (SD), arithmetic mean (converted)
  half-life: 107 h
[2]; human, plasma, oral, read-out: Median Tmax (min, max)
  Tmax: 3.5 h
[2]; human, plasma, oral
  Vd/F: 479 L
[2]; quizartinib in plasma, healthy subjects, single 30-mg quizartinib tablet alone, fasted, n = 30
  Median Tmax (min, max): 4.0 (2.0, 8.0) h
[2]; quizartinib in plasma, quizartinib alone, n = 30
  Cmax, geometric LS mean (ANOVA): 104.8 ng/mL
[2]; [7]
  Cmax (CV%), geometric mean: 105 (16.3) ng/mL
  Mean T1/2 (SD), arithmetic mean: 102.2 (29.0) h
[2]; lansoprazole 60 mg once daily + single 30-mg quizartinib, n = 31
  CL/F (CV%), geometric mean: 3.2 L/h and 3.2 (46.4)^b L/h
[2]; single 30-mg quizartinib alone, n = 30
  CL/F (CV%), geometric mean: 3.1 L/h and 3.1 (37.4) L/h
[3]; estimated in AML patients, ref data on file, Daiichi Sankyo Inc., Basking Ridge, NJ, USA
  half-life: 73 h
[3]; healthy subjects and patients with AML, range 2–8 h
  Time to maximum concentrations: 4 h
[4]; [8]
  TEAE: Back pain: 2 (3.2) n (%)
  TEAE: Constipation: 2 (3.2) n (%)
  TEAE: Dermatitis: 1 (1.6) n (%)
  TEAE: Diarrhea: 1 (1.6) n (%)
  TEAE: Dizziness: 1 (1.6) n (%)
  TEAE: Fatigue: 2 (3.2) n (%)
  TEAE: Headache: 3 (4.8) n (%)
  TEAE: Hypoacusis: 1 (1.6) n (%)
  TEAE: Hypoesthesia: 1 (1.6) n (%)
  TEAE: Muscle tightness: 2 (3.2) n (%)
  TEAE: Musculoskeletal pain: 1 (1.6) n (%)
  TEAE: Musculoskeletal stiffness: 1 (1.6) n (%)
  TEAE: Nasal congestion: 1 (1.6) n (%)
  TEAE: Nausea: 2 (3.2) n (%)
  TEAE: Phlebotomy: 1 (1.6) n (%)
  TEAE: Sneezing: 1 (1.6) n (%)
  TEAE: Throat irritation: 1 (1.6) n (%)
  TEAE: Upper respiratory tract infection: 5 (7.9) n (%)
  TEAE: Vessel puncture site pain: 1 (1.6) n (%)
[4]; [9]
  Abnormalities in vital signs, hematology, or clinical chemistry: No significant abnormalities
  Severe or serious TEAEs: no severe or serious TEAEs
  Subjects with TEAEs of mild severity among the 20 subjects who experienced a TEAE: 95%
  Subjects with at least one quizartinib-related TEAE (nausea, diarrhea, dizziness, headache, fatigue): Three
[4]; all subjects, quizartinib with or without lansoprazole, N = 63
  Subjects with at least one treatment-emergent AE (TEAE) following quizartinib treatment on day 5: 31.7%
[4]; [10]
  TEAE: Back pain: 1 (3.3) n (%)
  TEAE: Constipation: 1 (3.3) n (%)
  TEAE: Dermatitis: 0 n (%)
  TEAE: Diarrhea: 1 (3.3) n (%)
  TEAE: Dizziness: 0 n (%)
  TEAE: Fatigue: 1 (3.3) n (%)
  TEAE: Headache: 3 (10.0) n (%)
  TEAE: Hypoacusis: 0 n (%)
  TEAE: Hypoesthesia: 0 n (%)
  TEAE: Muscle tightness: 2 (6.7) n (%)
  TEAE: Musculoskeletal pain: 1 (3.3) n (%)
  TEAE: Musculoskeletal stiffness: 1 (3.3) n (%)
  TEAE: Nasal congestion: 1 (3.3) n (%)
  TEAE: Nausea: 1 (3.3) n (%)
  TEAE: Phlebotomy: 0 n (%)
  TEAE: Sneezing: 1 (3.3) n (%)
  TEAE: Throat irritation: 1 (3.3) n (%)
  TEAE: Upper respiratory tract infection: 2 (6.7) n (%)
  TEAE: Vessel puncture site pain: 0 n (%)
[4]; by treatment group, safety population, after database lock one event was found to be pre-existing
  TEAE: Dysmenorrhea: 1 (3.3) n (%)
[4]; by treatment group, quizartinib alone n = 30, lansoprazole + quizartinib n = 33
  Subjects with at least one treatment-emergent AE (TEAE) following quizartinib treatment on day 5: 30.0%
[4]; healthy subjects, with or without lansoprazole
  Overall safety and tolerability: generally safe and well tolerated
[5]
  Subjects with maximum QTcF value > 480 ms: None
[5]; [11]
  Maximum QTcF change from baseline in most subjects: ≤ 30 ms
  Maximum QTcF value in most subjects: ≤ 450 ms

## Cc1c(OCC(F)(F)F)ccnc1C[S+]([O-])c1nc2ccccc2[nH]1 (centres unmarked) [Lansoprazole, lansoprazole]
Gastric acid secretion
  Duration of inhibitory effect on gastric acid secretion: over 24 h
  Elimination half-life: less than 2 h
Gastric acid secretion; lansoprazole 30 mg once daily for 5 days, baseline 2.1
  Mean 24-h intragastric pH: 4.9
